A short description of data set [1]: Formulation Development Study #5 (44% propylene glycol): physical observations. In kind it is physicochemical. The following applies: with 44% propylene glycol at pH-9.0. Here is the method: In order to determine at what pH precipitate forms at room temperature, three lab batches were made with 44% propylene glycol and target pH at 9.1, 9.0 and 8.9. […] Lab batch samples were placed on stability at room temperature, 40° C., and 50° C. for three months. Only physical observations were performed during the stability study.

For data set [2] the following is noted: background statement; cited from earlier work.
Data set [3] is described as follows: Formulation Development Study #4 (target pH 9.0): physical observations. In kind it is physicochemical. The following applies: pH ˜9.0 and propylene glycol concentration less than 50%. How it is done: Four lab batches similar to Formulation Development Study #3 were made. The purpose of these batches was to find out if impurity at RRT 0.7 can be reduced by making lab batches with different concentrations of propylene glycol and alcohol at the target pH of 9.0. […] These four lab batches were placed on stability at room temperature, 40° C., and 50° C.

Data set [4] can be described thus: Formulation Development Study #2 (target pH 8.70): physical observations. In kind it is physicochemical. Particulars: below pH 8.7. How it is done: Based on Formulation Development Study #1, four more lab batches were made with different concentrations of propylene glycol and ethyl alcohol at target pH 8.70. The purpose of the study was to determine the influence of low pH and different concentrations of propylene glycol and ethyl alcohol on the product quality. Physical observations were recorded during compounding. Lab batch samples were placed on stability at room temperature, 40° C. and 50° C. Only physical observations were performed and recorded during stability. The stability study lasted one month.

Take `CCCC(C)C1(CC)C(=O)NC(=O)NC1=O` (stereo not shown) [pentobarbital, 5-Ethyl-5-(1-methylbutyl)-2,4,6(1H,3H,5H)-pyrimidinetrione]: the “Stability of pentobarbital in solution (precipitation)” value in data set [1], in data set [3] and in data set [4] was “not stable” each time. Also, the “pH at which pentobarbital precipitates” value in data set [2] is recorded as “less than 9.0”.

Source of the values: patent publication US9517269B1, “Stable pentobarbital formulation” (Akorn, Inc., priority 2013, dated 2016).
